Measured values from US7847108B2, “Oxathiin carboxamides” (Bayer CropScience AG, priority 2003, dated 2010).
Read-outs that look alike come from different tables or passages of the source.

Columns and labels:
Puccinia recondite = test: Puccinia test (wheat)/protective; type: in vivo; conditions: 240 h, wheat plants, protective, application rate 500 g/ha, evaluation 10 days after inoculation, solvent/emulsifier parts 25/0.5, 25/0.6 or 50/1.0, read-out: % efficacy
Experimental: Puccinia Test (Wheat)/Protective • Solvent: N,N-dimethylacetamide • Emulsifier: alkylaryl polyglycol ether […] To test for protective activity, young plants are sprayed with the preparation of active compound at the stated application rate. After the spray coating has dried on, the plants are sprayed with a conidia suspension of Puccinia recondite. […] The plants are then placed in a greenhouse at a temperature of about 20° C. and a relative atmospheric humidity of 80% to promote the development of rust pustules.

[1] = logP determination by HPLC on reversed-phase column (EEC Directive 79/831 Annex V.A8); type: physicochemical; conditions: reversed-phase C18 HPLC column
Experimental: The given logP values were determined in accordance with EEC Directive 79/831 Annex V.A8 by HPLC (High Performance Liquid Chromatography) on a reversed-phase column (C 18). Temperature: 43° C. […] Calibration was carried out using unbranched alkan-2-ones (having 3 to 16 carbon atoms) with known logP values (determination of the logP values by the retention times using linear interpolation between two successive alkanones).

Botrytis cinerea = test: Botrytis test (bean)/protective; type: in vivo; conditions: 48 h, bean plants, protective, application rate 500 g/ha, evaluation 2 days after inoculation, read-out: % efficacy
Experimental: Botrytis Test (Bean)/Protective
• Solvents:24.5 parts by weight of acetone 24.5 parts by weight of dimethylacetamide • Emulsifier: 1 part by weight of alkylaryl polyglycol ether
(§1) To produce a suitable preparation of active compound, 1 part by weight of active compound is mixed with the stated amounts of solvents and emulsifier, and the concentrate is diluted with water to the desired concentration.
To test for protective activity, young plants are sprayed with the preparation of active compound at the stated application rate. After the spray coating has dried on, 2 small pieces of agar colonized with Botrytis cinerea are placed onto each leaf. The inoculated plants are placed in a dark chamber at about 20° C. and 100% relative atmospheric humidity.
2 days after the inoculation, the size of the infected areas on the leaves is evaluated. 0% means an efficacy which corresponds to that of the control, whereas an efficacy of 100% means that no infection is observed.

Alternaria solani = test: Alternaria test (tomato)/protective; type: in vivo; conditions: tomato plants, protective, application rate 750 g/ha, evaluation 7 days after inoculation
Experimental: Alternaria Test (Tomato)/Protective
• Solvent: 49 parts by weight of N,N-dimethylformamide • Emulsifier: 1 part by weight of alkylaryl polyglycol ether
To produce a suitable preparation of active compound, 1 part by weight of active compound is mixed with the stated amounts of solvent and emulsifier, and the concentrate is diluted with water to the desired concentration.
To test for protective activity, young tomato plants are sprayed with the preparation of active compound at the stated application rate. 1 day after the treatment, the plants are inoculated with a spore suspension of Alternaria solani and are then allowed to stand at 100% relative humidity and 20° C. for 24 h. The plants are then allowed to stand at 96% relative atmospheric humidity and a temperature of 20° C.
Evaluation is carried out 7 days after the inoculation. 0% means an efficacy which corresponds to that of the control, whereas an efficacy of 100% means that no infection is observed.

Venturia inaequalis = test: Venturia test (apple)/protective; type: in vivo; conditions: 240 h, apple plants, protective, application rate 100 g/ha, evaluation 10 days after inoculation, read-out: % efficacy
Experimental: Venturia Test (Apple)/Protective
• Solvents: 24.5 parts by weight of acetone 24.5 parts by weight of dimethylacetamide • Emulsifier: 1 part by weight of alkylaryl polyglycol ether
as §1
To test for protective activity, young plants are sprayed with the preparation of active compound at the stated application rate. After the spray coating has dried on, the plants are inoculated with an aqueous conidia suspension of the apple scab pathogen Venturia inaequalis and then remain in an incubation cabin at about 20° C. and 100% relative atmospheric humidity for 1 day.
The plants are then placed in a greenhouse at about 21° C. and a relative atmospheric humidity of about 90%.
Evaluation is carried out 10 days after the inoculation. 0% means an efficacy which corresponds to that of the control, whereas an efficacy of 100% means that no infection is observed.

[2] = Table 1 logP / m.p., C18, 43° C., acidic range (pH 2.3), read-out: logP

chromatographic logP [1, 2]	chromatographic logP ([1]; pH 2.3, C18, 43° C., read-out: logP (pH 2.3))	SMILES	pest or weed control at 500 g/ha (Puccinia recondite) [%]	pest or weed control at 500 g/ha (Botrytis cinerea) [%]	% efficacy (Alternaria solani) [%]	pest or weed control at 100 g/ha (Venturia inaequalis) [%]
3.69		O=C(Nc1ccccc1-c1ccc(Br)c(F)c1)C1=C(C(F)(F)F)OCCS1 [Example 57]	88			
4.38		CC(CC1CCCC1)c1ccccc1NC(=O)C1=C(C(F)(F)F)OCCS1 (stereo not drawn) [Example 37]	93			
3.91		O=C(Nc1ccccc1-c1ccc(Cl)c(Cl)c1)C1=C(C(F)(F)F)OCCS1 [Example 19]	100	100	100	100
3.92		CC(C)CC(C)c1ccccc1NC(=O)C1=C(C(F)(F)F)OCCS1 (stereo not drawn) [Example 18]	100	100		100
3.95		O=C(Nc1ccc(F)cc1-c1ccc(Cl)c(Cl)c1)C1=C(C(F)(F)F)OCCS1 [Example 17]	86	96		100
4.08		CC/C(=N\OC)c1ccc(-c2ccccc2NC(=O)C2=C(C(F)(F)F)OCCS2)cc1 [Example 56]	88			
4.22		CC(C)O/N=C/c1ccc(-c2ccccc2NC(=O)C2=C(C(F)(F)F)OCCS2)cc1 [Example 21]		100	100	100
3.82		O=C(Nc1ccccc1-c1ccc(Cl)cc1Cl)C1=C(C(F)(F)F)OCCS1 [Example 79]	86			
		CC1CC(C)(C)c2cccc(NC(=O)C3=C(C(F)(F)F)OCCS3)c21 (stereo not drawn) [Example 12]		97		100
4.03		CC(C)CC(C)c1ccccc1NC(=O)C1=C(C(F)F)OCCS1 (stereo not drawn) [Example 82]	100			
3.89		Cc1ccc(-c2ccccc2NC(=O)C2=C(C(F)(F)F)OCCS2)cc1Cl [Example 38]	88			
3.75		O=C(Nc1ccccc1-c1ccc(C(F)(F)F)c(F)c1)C1=C(C(F)(F)F)OCCS1 [Example 29]	94			
	4.18	CC(CC(C)(C)C)c1ccccc1NC(=O)C1=C(C(F)(F)F)OCCS1 (stereo not drawn) [Example 2, N-[2-(1,3,3-trimethylbutyl)phenyl]-6-trifluoromethyl-2,3-dihydro-1,4-oxathiin-5-carboxamide]	100	100	100	98
3.73		O=C(Nc1ccccc1-c1ccc(C(F)(F)F)cc1)C1=C(C(F)(F)F)OCCS1 [Example 20]		100		88
3.65		Cc1cc(-c2ccccc2NC(=O)C2=C(C(F)(F)F)OCCS2)ccc1F [Example 35]	88			
3.62		O=C(Nc1ccccc1-c1ccc(Cl)c(F)c1)C1=C(C(F)(F)F)OCCS1 [Example 23]	89			
4		Cc1cc(Cl)ccc1-c1ccccc1NC(=O)C1=C(C(F)(F)F)OCCS1 [Example 26]			100	
3.6		O=C(Nc1ccccc1-c1ccc(F)c(Cl)c1)C1=C(C(F)(F)F)OCCS1 [Example 24]	100			
3.7		O=C(Nc1ccccc1-c1ccc(Br)cc1)C1=C(C(F)(F)F)OCCS1 [Example 27]	88			
4.25		CCCO/N=C/c1ccc(-c2ccccc2NC(=O)C2=C(C(F)(F)F)OCCS2)cc1 [Example 22]		100		100
